{"source": "paper PMC11943016", "about": "“TBG096 Ameliorates Memory Deficiency in AD Mouse Model via Promoting Neurogenesis and Regulation of Hsc70/HK2/PKM2/LAMP2A Signaling Pathway” (International Journal of Molecular Sciences, 2025)", "key": {"[1]": {"test_system": "PC12 cells", "assay": "EdU cell proliferation in PC12 cells (inhibitor experiment)", "format": "cell-based", "details": "24 h", "experimental": "In the inhibitor experiment of EdU cell proliferation activity, PC12 cells were seeded into each well of a 24-well plate as above for 24 h. Then, the medium in each well was replaced with 500 μL of serum-free […] containing VER155008 (inhibitor of Hsc70, 3 µM), or NH4Cl (inhibitor of lysosome, 250 µM) for 30 min according to the literature, and 500 μL of serum-free DMEM containing different samples was added and cultured for 24 h, respectively. After that, PC12 cells were treated with EdU for 2 h according to the operation steps of the BeyoClick™ EdU-488 cell proliferation detection kit (#C0071S, Beyotime Biotechnology, Shanghai, China). After cell labeling, the supernatant was removed. Then, PC12 cells were fixed, washed, and blocked, and the click reaction solution was added at room temperature for 30 min. After that, DAPI staining was performed for 10 min. Finally, PC12 cells were detected by fluorescence microscope (Olympus IX53, Tokyo, Japan)."}, "[2]": {"test_system": "Hsc70, LAMP2A, APP, PKM2, and HK2 proteins", "assay": "Western blot of CMA proteins in PC12 cells (inhibitor experiment)", "format": "cell-based", "details": "TBG096 1 µM, 4 h, vs control", "experimental": "In the inhibitor experiment of NGF-mimic activity, approximately 5 × 10^4 PC12 cells were seeded into each well of a 24-well plate and incubated for 24 h. After that, the medium in each well was replaced with 500 μL of serum-free DMEM or the serum-free DMEM containing VER155008, the inhibitor of Hsc70 protein, incubated in a CO2 incubator for 30 min. Subsequently, 500 μL of serum-free DMEM containing different samples was added and cultured, respectively. The PC12 cells with neurite outgrowth were recorded after 48 h. For the Western blot analysis, the experiment included five groups, namely the control (C) group, the NGF (40 ng/mL) group, the TBG096 (1 µM) group, the VER155008 (3 µM) group, and the VER155008 (3 µM) + TBG096 (1 µM) group. Afterwards, approximately 2 × 10^6 cells per dish were seeded into ten 6 cm Petri dishes with 5 mL of DMEM medium and incubated for 24 h. After giving different treatments with samples, the cells continued to culture for 4 h. Protein extraction was conducted to prepare for the subsequent Western blot analysis.\nApproximately 50 mg of cerebral cortex from brain tissues was homogenized in RIPA lysis buffer containing 1% protease inhibitor and 1% phosphatase inhibitor. Then, the sample was centrifuged at 12,000 rpm at 4 °C for 10 min, and the supernatant was transferred to a new tube. Protein concentrations were determined using the BCA kit, and 30 µg of protein from each sample was denatured by heating in water at 100 °C for 10 min. Subsequently, approximately 30 µg of protein from each sample was loaded into each well. After conducting gel electrophoresis at 80 V for 15 min and then at 120 V for 60 min, the proteins were transferred to the polyvinylidene fluoride (PVDF) membrane for 90 min. Then, the PVDF membrane was blocked with 5% skimmed milk at room temperature for 60 min. The membrane was incubated with a diluted primary antibody at 4 °C overnight. After washing the membrane three times with TBST buffer (1× TBS buffer containing 0.05% (v/v) tween 20), it was incubated with the secondary antibody for 1 h at room temperature. Finally, the strip was developed using chemiluminescence ECL reagent, and the blot density was quantified with ImageJ (National Institutes of Health, Bethesda, MD, USA)."}, "[3]": {"test_system": "AMPK, p-AMPK, Hsc70, PKM2, HK2, LAMP2A, APP, Tau, p-Tau, Aβ oligomers", "assay": "Western blot of cerebral cortex of HFD-induced AD mice", "format": "in vivo", "source_text": "In experiments with the HFD-induced AD mouse model, a total of 60 Institute of Cancer Research (ICR) male mice aged 4 weeks from Zhejiang Academy of Medical Sciences (Hangzhou, China) were used for animal experiments (permit number: ZJU20230121). The animals were provided free access to a chow diet and water. […] The HFD and normal diet were alternated every two days to maintain freshness. Weekly measurements were taken for water intake, food intake, and body weight. In the eighteenth week, the mice underwent Y-maze and NOR tests. The Morris water maze test was conducted during the nineteenth week. After confirming the successful establishment of the AD model characterized by cognitive impairment, oral administration of treatments commenced. […] Each group had 10 mice.\nApproximately 50 mg of cerebral cortex from brain tissues was homogenized in RIPA lysis buffer containing 1% protease inhibitor and 1% phosphatase inhibitor. Then, the sample was centrifuged at 12,000 rpm at 4 °C for 10 min, and the supernatant was transferred to a new tube. Protein concentrations were determined using the BCA kit, and 30 µg of protein from each sample was denatured by heating in water at 100 °C for 10 min. […] Finally, the strip was developed using chemiluminescence ECL reagent, and the blot density was quantified with ImageJ (National Institutes of Health, Bethesda, MD, USA)."}, "[4]": {"test_system": "ICR mice", "assay": "Acute toxicity experiment in mice", "format": "in vivo", "experimental": "In the acute toxicity experiment of mice, a total of 40 ICR male mice aged 8 weeks from Zhejiang Academy of Medical Sciences (Hangzhou, China) were used. A standard experimental scheme was adopted according to the requirements of Zhejiang University Animal Experiment Ethics Committee (animal use license number: SYXK(Zhe)2019-0002, permit number: ZJU20230219). The mice were randomly divided into the following groups: (i) control group, (ii) TBG096 100 mg/kg group, (iii) TBG096 300 mg/kg group, and (iv) TBG096 600 mg/kg group. Each group had 10 mice. Soybean oil was used as a vehicle to dissolve TBG096. The body weight, food intake, and water consumption of mice in each group were recorded every day for two weeks. Blood was collected for biochemical index analysis."}, "[5]": {"test_system": "BV-2 microglial cells", "assay": "Anti-inflammatory activity in LPS-treated BV-2 cells (Iba1 fluorescence)", "format": "cell-based", "details": "24 h", "experimental": "BV-2 cells were obtained from Nanjing CoBioer Biotechnology Ltd., Co., Nanjing, China, and cultured in RPMI 1640 medium (Roswell Park Memorial Institute 1640 medium, Gibco, Grand Island, NY, USA) supplemented with 10% FBS and 1% penicillin/streptomycin. The anti-inflammatory activity of samples in BV-2 cells was determined as follows. Approximately 5 × 10^4 cells were seeded in each well of a 24-well microplate and were cultured under a humidified atmosphere with 5% CO2 at 37 °C for 24 h. Then, the medium was replaced by 500 µL RPMI 1640 medium containing 0.5% DMSO or samples at different concentrations for 2 h, and 500 µL medium containing LPS (1 µg/mL) was added and incubated for 24 h. Next, the medium of each well was sucked out, and each well was washed with phosphate-buffered saline (PBS) three times and fixed with 4% paraformaldehyde (500 µL/well) for 20 min at room temperature. The fixative was discarded, washed with PBS, and blocked for 60 min. […] After that, the cell nucleus was stained with diluted DAPI (SouthernBiotech, Birmingham, AL, USA) for 10 min, and the fluorescence image of BV-2 cells was observed under the fluorescence inverted microscope. Three regions were randomly selected to be observed and recorded with pictures. Image J software version 1.8.0 (National Institutes of Health, Bethesda, MD, USA) was finally used to analyze the fluorescence density of BV-2 cells."}}}
{"smiles": "O=C(SCCCCCCSCCCC(F)(F)F)c1cccc(O)c1O", "note": "[TBG096]", "values": [{"measurement": "EdU cell proliferation activity", "setting": "[1]", "result": "promoting PC12 cell proliferation"}, {"measurement": "HK2 protein expression", "setting": "[2]", "result": "significantly decreased"}, {"measurement": "APP protein expression", "setting": "[2]; VER155008 3 µM", "result": "significantly decreased"}, {"measurement": "Hsc70 protein level", "setting": "[2]; VER155008 3 µM", "result": "significantly increased"}, {"measurement": "LAMP2A protein level", "setting": "[2]; VER155008 3 µM", "result": "significantly increased"}, {"measurement": "PKM2 protein expression", "setting": "[2]; VER155008 3 µM", "result": "significantly decreased"}, {"measurement": "phosphorylated AMPK/AMPK, LAMP2A, Hsc70, HK2 and PKM2 protein levels", "setting": "[3]", "result": "returned to normal"}, {"measurement": "APP, Tau, p-Tau, and Aβ oligomers protein expression", "setting": "[3]; vs HFD", "result": "significantly reduced"}, {"measurement": "acute toxicity in mice", "setting": "[4]; mouse, in vivo", "result": "does not exhibit acute toxicity"}, {"measurement": "body weight, food intake, water consumption", "setting": "[4]; oral 100, 300, and 600 mg/kg, two weeks, mice", "result": "no significant differences"}, {"measurement": "serum biochemical indices (AST, ALT, AST/ALT, ALB, DBIL)", "setting": "[4]; oral 100, 300, and 600 mg/kg, vs control group, mice", "result": "no significant changes"}, {"measurement": "LPS-induced overactivation of BV-2 cells", "setting": "[5]", "result": "dose-dependently inhibited"}, {"measurement": "optimal concentration for inhibition of LPS-induced overactivation of BV-2 cells", "setting": "[5]", "result": 0.3, "unit": "µM"}]}
